What was measured:
[1] = test system: primary human pan T cells; assay: Human T-Cell IL2 Induction Assay; assay type: cell-based; conditions: assayed concentration 0.31 μM; anti-CD3/anti-CD28 stimulated primary human pan T cells
Procedure: Example B3: Human T-Cell IL2 Induction Assay
Anti-CD3 and anti-CD28 activates TCR signaling in primary human pan T cells leading to IL-2 promoter induction. Secreted IL-2 in cell culture supernatant is detected by electrochemiluminescence using a capture antibody against IL-2 and an anti-IL-2 antibody labeled with SULFO-tag.
Incubate primary human pan T cells with varying concentrations of test compounds for 30 minutes in a humidified incubator at 37° C. and 5% CO2. Transfer cells to a plate pre-coated with a fixed concentration of anti-human CD3 (determined separately for each donor lot) and add soluble anti-human CD28 (final concentration=1 μg/ml). Stimulate cells in a humidified incubator at 37° C. and 5% CO2 for 4 hours. Transfer 25 μl of supernatant to a MSD single spot plate pre-coated with an anti-human IL-2 antibody. Incubate MSD plate overnight at 4° C. with gentle shaking. Wash MSD plate 4× with wash buffer. Add SULFO-tagged detection antibody at a 1:50 dilution and incubate at room temperature shaking for 2 hours. Wash MSD plate 4× with wash buffer and add 150 μl 2×MSD read buffer. Read on an MSD instrument. […]
Exemplary compounds of Formula (I) were tested in the human T-cell IL-2 induction assays. The % increase measured for IL-2 in cells treated by the test compounds relative to untreated cells are provided in Table B2 for certain compounds.

[2] = biological target: T1, HPK full length, T165E S171E (Homo sapiens, UniProt Q92918, S171E/T165E); assay: HPK1-FL HTRF Enzymatic Assay ("HTRF"); assay type: biochemical; conditions: ATP 1 mM, read-out: HPK1 Ki (nM) H = HTRF
T1 construct: HPK full length, T165E S171E: 0.125 nM
T1 sequence (Q92918 whole entry T165E/S171E): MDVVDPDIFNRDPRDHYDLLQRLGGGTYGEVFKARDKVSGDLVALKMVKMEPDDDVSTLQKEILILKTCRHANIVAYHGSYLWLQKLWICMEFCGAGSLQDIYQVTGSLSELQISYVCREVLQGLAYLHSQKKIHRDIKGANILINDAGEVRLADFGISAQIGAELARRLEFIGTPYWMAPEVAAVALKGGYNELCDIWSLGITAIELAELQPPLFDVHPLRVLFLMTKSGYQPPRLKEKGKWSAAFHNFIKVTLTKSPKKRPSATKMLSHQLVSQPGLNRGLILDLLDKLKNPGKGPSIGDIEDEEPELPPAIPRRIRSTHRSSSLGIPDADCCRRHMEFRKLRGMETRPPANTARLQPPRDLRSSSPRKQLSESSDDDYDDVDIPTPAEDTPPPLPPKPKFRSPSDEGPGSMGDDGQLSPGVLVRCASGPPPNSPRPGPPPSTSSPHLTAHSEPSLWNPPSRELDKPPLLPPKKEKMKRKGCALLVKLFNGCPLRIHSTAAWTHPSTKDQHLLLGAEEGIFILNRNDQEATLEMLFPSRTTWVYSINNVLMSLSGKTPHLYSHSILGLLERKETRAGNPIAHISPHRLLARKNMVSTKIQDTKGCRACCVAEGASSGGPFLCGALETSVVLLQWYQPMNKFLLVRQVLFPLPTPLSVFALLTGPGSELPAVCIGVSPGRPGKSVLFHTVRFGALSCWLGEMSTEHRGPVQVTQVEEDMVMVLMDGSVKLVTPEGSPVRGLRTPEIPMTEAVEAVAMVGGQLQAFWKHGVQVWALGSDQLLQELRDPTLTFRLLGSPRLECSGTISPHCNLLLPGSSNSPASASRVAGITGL
Procedure: Example B1: HPK1-FL HTRF Enzymatic Assay (“HTRF”)
HPK-FL enzyme phosphorylates Biotin-SLP-76 substrate in the presence of ATP at 1 mM and varying concentrations of test compound. Product is detected by FRET using Eu-anti-pSLP76 Ab and SA-XL665. Also see www.cisbio.com/HTRF for additional HTRF technology information.
• Echo555 compound dispenser • Agilent Bravo • Perkin Elmer Envision Final Assay Conditions: • HPK full length, T165E S171E: 0.125 nM • Biotin-SLP76: 100 nM • ATP: 1 mM (ATP Km=20 μM) • Eu-anti-pSLP76: 2 nM • SA-XL665: 8.3 nM • Preincubation time: 30 min • Kinase reaction time: 60 min • Temperature: ambient • Total volume: 12 μl • ATP^app Km: 17.7 μM Materials: • Assay plate: White ProxiPlate 384 F (PerkinElmer cat #6008289) • Kinase: HPK full length double mutant • Substrate: Biotin-SLP76 • ATP: 100 mM ATP • BSG: 2% BSG • DMSO: DMSO(Sigma cat #34869-100ML) • Reaction Buffer: H2O/50 mM HEPES, pH 7.5/10 mM MgCl2/2 mM TCEP/0.01% Brij-35/0.01% BSG • Detection mix: Eu-anti-pSLP76/SA-XL665 (Cisbio, #610SAXAC) Assay Procedure Ki Determination:
To a 384 well Proxiplate with 80 nL compound or DMSO spotted on was added 4 μl/well kinase mix. The mixture was preincubated for 30 minutes and then 4 μl/well substrate mix was added. The solution was incubated for 60 min and then 4 μl/well detection mix was added. The solution was incubated for another 60 min. The plates were then loaded onto a Perkin Elmer Envision and the TR-FRET signal was measured at 615 and 665 nm. A ratio of […] was used to calculate the % activity at each concentration of compound.

Ki [2]: 0.27 nM
SMILES: Cc1c(N)cncc1-c1cc2cc(Nc3cc4n(n3)CC(=O)N(C)CC43CC3)ncc2c(C)n1 [Compound 101, 2′-((6-(5-amino-4-methylpyridin-3-yl)-8-methyl-2,7-naphthyridin-3-yl)amino)-6′-methyl-5′,6′-dihydrospiro[cyclopropane-1,4′-pyrazolo[1,5-d][1,4]diazepin]-7′(8′H)-one]
% IL-2 increase relative to untreated cells [1]: 421%

From patent publication US12297210B2, “Naphthyridine compounds and uses thereof” (Genentech, Inc., priority 2018, dated 2025)
